# Data: BindingDB's records for patent WO2022112919 (Pfizer, 2022)
# Target: T1, Transthyretin (Homo sapiens, UniProt P02766)
# Assay: Binding of Examples to Transthyretin - EC50 Determination
# Procedure: TTR SPA binding assays were performed in a final volume of 60 mI containing 100 ng human TTR (biotinylated recombinant protein) coupled to 25 pg SPA beads (streptavidin coated, Perkin Elmer, RPNQ0007) and 50 nM [3H] tafamidis (Moravek, MT-1003033), plus varying concentrations of test compound or vehicle. Briefly, assays were prepared at room temperature in 384-well plates (Corning, 3767) containing 200 nl_ of test compound in DMSO (or DMSO as vehicle). The plates also contained wells with a saturating concentration of unlabeled ligand (200 nl_ of 3 mM tafamidis or 3 mM thyroxine in DMSO) for measuring non-specific binding. Assays were initiated by addition of 20 mI of […] TTR protein in assay buffer (10 mM Tris pH 7.5, 150 mM NaCI, 0.25% Triton X-100) and 20 mI_ of 150 nM [3H] tafamidis in assay buffer. The plates were incubated 1 hour prior to addition of 20 mI_ of 1.25 mg/ml_ SPA beads diluted in assay buffer. The assays were incubated an additional 10 hours to allow binding to reach equilibrium and the amount of receptor-ligand complex was determined by liquid scintillation counting using a 1450 Microbeta Trilux (Wallac). The % effect values for test wells were calculated based on the total binding (vehicle, 0% effect) and non-specific binding (unlabeled ligand, 100% effect) wells on each assay plate. ECso values were then determined using a standard 4 parameter logistic dose response equation.
row,Compound,EC50
1,"Cc1[nH]nc(C#N)c1-c1ccc(C)c2scnc12 [WO2022112919, Example 8]",20 nM
2,"COc1cc(-c2c(C)n[nH]c2C)c2ncsc2c1 [WO2022112919, Example 14]",25 nM
3,"Cc1[nH]nc(C#N)c1-c1ccc(C(F)(F)F)c2scnc12 [WO2022112919, Example 9]",36 nM
4,"Cc1cc(-c2c(C)n[nH]c2C)c2ncsc2c1 [WO2022112919, Example 13]",21 nM

# The next lines start with the values.
row,EC50,Compound
1,14 nM,"Cc1n[nH]c(C)c1-c1cccc2ncsc12 [WO2022112919, Example 2]"
2,21 nM,"Cc1n[nH]c(C)c1-c1cc(F)cc2scnc12 [WO2022112919, Example 15]"

# Target: T1, Transthyretin
# Assay: KD Determination by SPR
# Procedure: Affinity and Reversibility -The binding affinity and kinetics of binding were measured using Surface Plasmon Resonance based binding assay. These experiments were carried out on Bruker SPR MASS-1 and MASS-2 instruments. There was no significant difference in results obtained on both these instruments. Bap-tagged TTR protein was captured on a Streptavidin coated sensor chip to achieve about 2000 to 3000 RUs of surface density. All the samples were prepared in buffer consisting of 10 mM Sodium Phosphate, pH 7.6, 100 mM KCI, 0.005% Tween-20 and 2% DMSO. The same buffer was used as the running buffer during the experiments. Compound samples were injected at a flow rate of 30 pL/min for 90 seconds of association time followed by at least 240 seconds of dissociation period. The compounds were tested in a concentration series consisting of at least 6 samples (usually 10) made with 5-fold, 3-fold, or 2-fold dilution. The highest concentration was […] or selected based on compound binding affinity observed in a previous experiment. […] The data were processed and analyzed using Bruker Analyzer and Scrubber to calculate binding affinities by fitting the data to 1:1 binding model. […] Tafamidis binds to TTR in a reversible manner with calculated residence time of around 40 seconds.
row,Kd,Compound
1,39 nM,"Cc1n[nH]c(C)c1-c1ccnc2scnc12 [WO2022112919, Example 19]"
2,17 nM,"Cc1n[nH]c(C)c1-c1cccc2ncsc12 [WO2022112919, Example 2]"
